The target of the assay is T1, ΔF508-CFTR (Homo sapiens, UniProt P13569, DEL508-508).
T1 construct: expressed in transfected cells
Briefly: Membrane potential optical assay (FRET voltage-sensor dyes, VIPR), identification of potentiator compounds. The assay is classed as cell-based. The note with it: Table 3, assay not given; for Emax: read-out: % Activity (% Efficacy, relative efficacy). An outline of the steps:
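Potentiator screen measured membrane potential via FRET between CC2-DMPE donor and DiSBAC2(3), read on VIPR II. Compound went in with the first addition of chloride-free gluconate bath; cells were ΔF508-CFTR-expressing NIH3T3 mouse fibroblasts, temperature-corrected at 27 °C for 24 h.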

This passage reports Emax and EC50 results from US8802700B2 (Vertex Pharmaceuticals Incorporated, priority 2010, dated 2014).

The structures appear in SMILES notation.

T1 sequence (P13569 with tags, fused parts or gaps DEL508-508): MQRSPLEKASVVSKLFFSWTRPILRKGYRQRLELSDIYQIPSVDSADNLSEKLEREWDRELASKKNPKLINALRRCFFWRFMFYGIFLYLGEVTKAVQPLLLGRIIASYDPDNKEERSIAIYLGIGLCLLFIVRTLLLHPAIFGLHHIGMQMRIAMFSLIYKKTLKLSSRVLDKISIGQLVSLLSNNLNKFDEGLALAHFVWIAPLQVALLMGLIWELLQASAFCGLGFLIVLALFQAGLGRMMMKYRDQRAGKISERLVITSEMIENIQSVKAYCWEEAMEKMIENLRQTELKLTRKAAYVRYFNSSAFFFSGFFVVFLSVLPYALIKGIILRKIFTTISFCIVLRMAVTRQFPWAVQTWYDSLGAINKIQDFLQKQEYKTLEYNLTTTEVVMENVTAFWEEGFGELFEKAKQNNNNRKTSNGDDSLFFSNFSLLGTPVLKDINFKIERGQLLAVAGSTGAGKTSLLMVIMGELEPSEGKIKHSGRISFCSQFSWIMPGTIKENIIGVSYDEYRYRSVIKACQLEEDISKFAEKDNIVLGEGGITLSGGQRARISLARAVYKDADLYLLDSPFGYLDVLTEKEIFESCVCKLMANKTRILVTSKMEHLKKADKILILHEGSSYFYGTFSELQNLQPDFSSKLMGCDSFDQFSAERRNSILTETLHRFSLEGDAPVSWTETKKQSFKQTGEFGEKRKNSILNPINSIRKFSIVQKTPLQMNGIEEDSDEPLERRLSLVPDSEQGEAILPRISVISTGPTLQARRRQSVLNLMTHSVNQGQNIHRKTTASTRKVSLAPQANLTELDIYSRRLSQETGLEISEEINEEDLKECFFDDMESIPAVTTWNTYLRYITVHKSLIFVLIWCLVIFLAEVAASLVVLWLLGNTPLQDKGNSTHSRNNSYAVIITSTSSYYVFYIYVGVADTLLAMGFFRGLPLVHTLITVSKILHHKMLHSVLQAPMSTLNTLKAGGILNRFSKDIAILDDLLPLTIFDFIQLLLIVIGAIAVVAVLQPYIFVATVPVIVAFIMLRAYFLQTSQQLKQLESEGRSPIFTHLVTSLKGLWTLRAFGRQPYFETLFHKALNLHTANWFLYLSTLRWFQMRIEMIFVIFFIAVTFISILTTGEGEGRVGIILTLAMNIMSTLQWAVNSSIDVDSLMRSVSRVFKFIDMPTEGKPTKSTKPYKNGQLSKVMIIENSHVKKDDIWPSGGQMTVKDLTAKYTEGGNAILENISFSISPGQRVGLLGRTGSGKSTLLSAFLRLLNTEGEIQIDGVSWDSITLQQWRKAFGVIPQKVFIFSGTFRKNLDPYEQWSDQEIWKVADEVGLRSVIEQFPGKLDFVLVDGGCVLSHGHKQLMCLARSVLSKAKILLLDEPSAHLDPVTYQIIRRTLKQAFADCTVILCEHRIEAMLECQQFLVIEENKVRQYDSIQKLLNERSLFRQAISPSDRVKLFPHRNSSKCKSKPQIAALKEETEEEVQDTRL

Turning to `COc1ccc2c(=O)c(C(=O)Nc3cc(O)c(C(C)(C)C)cc3C(C)(C)C)c[nH]c2c1` [Compound 583, N-(5-hydroxy-2,4-ditert-butyl-phenyl)-7-methoxy-4-oxo-1H-quinoline-3-carboxamide], the Emax fell in the range of 25 to 100%. Consider `COc1ccc2[nH]cc(C(=O)Nc3cc(O)c(C4(C)CCCCC4)cc3F)c(=O)c2c1` [Compound 584, N-[2-fluoro-5-hydroxy-4-(1-methylcyclohexyl)-phenyl]-6-methoxy-4-oxo-1H-quinoline-3-carboxamide], for which the Emax was in the range of 25 to 100%. Regarding `CC(C)(C)c1cc(C(C)(C)C)c(NC(=O)c2c[nH]c3cccc(N)c3c2=O)cc1O` [Compound 585, 5-amino-N-(5-hydroxy-2,4-ditert-butyl-phenyl)-4-oxo-1H-quinoline-3-carboxamide], the Emax is above 100%. With `CC(C)c1ccc(NC(=O)c2c[nH]c3cccc(O)c3c2=O)cc1O` [Compound 587, 5-hydroxy-N-(3-hydroxy-4-isopropyl-phenyl)-4-oxo-1H-quinoline-3-carboxamide], the Emax fell in the range of 25 to 100%. `Cc1cc(C(C)(C)C)c(O)cc1NC(=O)c1c[nH]c2cccc(O)c2c1=O` [Compound 588, 5-hydroxy-N-(5-hydroxy-2-methyl-4-tert-butyl-phenyl)-4-oxo-1H-quinoline-3-carboxamide]: the Emax was 25 to 100%. On to `CC(C)c1ccc(NC(=O)c2c[nH]c3cc(F)c(F)cc3c2=O)c(C(F)(F)F)c1` [Compound 589, 6,7-difluoro-N-[4-isopropyl-2-(trifluoromethyl)phenyl]-4-oxo-1H-quinoline-3-carboxamide], for which the Emax is 25 to 100%.

For `CC(CO)(CO)c1ccc(NC(=O)c2c[nH]c3ccccc3c2=O)cc1` [Compound 590, N-[4-[2-hydroxy-1-(hydroxymethyl)-1-methyl-ethyl]phenyl]-4-oxo-1H-quinoline-3-carboxamide], the Emax was below 25%. Same read-out and setting: in the case of `CCc1cc2cc[nH]c2cc1NC(=O)c1c[nH]c2cccc(O)c2c1=O` [Compound 591, N-(5-ethyl-1H-indol-6-yl)-5-hydroxy-4-oxo-1H-quinoline-3-carboxamide] it was 25 to 100%; in that of `Cc1cccc2[nH]cc(C(=O)Nc3ccc(N4[C@H](C)CC[C@@H]4C)cc3C(F)(F)F)c(=O)c12` [Compound 592, N-(4-((2R,5S)-2,5-dimethylpyrrolidin-1-yl)-2-(trifluoromethyl)phenyl)-5-methyl-4-oxo-1,4-dihydroquinoline-3-carboxamide], 25 to 100%. Turning to `O=C(Nc1cc(N2CCCC2)cc(C(F)(F)F)c1)c1c[nH]c2ccccc2c1=O` [Compound 593, 4-oxo-N-[3-pyrrolidin-1-yl-5-(trifluoromethyl)phenyl]-1H-quinoline-3-carboxamide], the Emax was in the range of 25 to 100%. As to `CC(C)(C)c1ccc(NC(=O)c2c[nH]c3ccccc3c2=O)c(C(C)(C)C)c1O` [Compound 594, N-(3-hydroxy-2,4-ditert-butyl-phenyl)-4-oxo-1H-quinoline-3-carboxamide], the Emax was above 100%.

In the case of `Cc1cccc2[nH]cc(C(=O)Nc3ccc(OC4CCCC4)cc3C(F)(F)F)c(=O)c12` [Compound 595, N-[4-cyclopentoxy-2-(trifluoromethyl)phenyl]-5-methyl-4-oxo-1H-quinoline-3-carboxamide], the Emax is 25 to 100%. In the case of `O=C(Nc1cc2[nH]ccc2cc1F)c1c[nH]c2cccc(O)c2c1=O` [Compound 596, N-(5-fluoro-1H-indol-6-yl)-5-hydroxy-4-oxo-1H-quinoline-3-carboxamide], the Emax fell in the range of 25 to 100%. For the molecule `CC(C)c1ccc(NC(=O)c2c[nH]c3ccc(F)cc3c2=O)cc1O` [Compound 597, 6-fluoro-N-(3-hydroxy-4-isopropyl-phenyl)-4-oxo-1H-quinoline-3-carboxamide], the EC50 (as a rule, the concentration needed to bring the measured effect to its halfway point) was below 10 µM and the Emax fell in the range of 25 to 100%. Regarding `O=C(Nc1ccc(N2CCOCC2)cc1C(F)(F)F)c1c[nH]c2ccccc2c1=O` [Compound 598, N-[4-morpholino-2-(trifluoromethyl)phenyl]-4-oxo-1H-quinoline-3-carboxamide], the Emax is above 100%.

Regarding `O=C(Nc1cc(O)cc(C(F)(F)F)c1)c1c[nH]c2cccc(O)c2c1=O` [Compound 599, 5-hydroxy-N-[3-hydroxy-5-(trifluoromethyl)phenyl]-4-oxo-1H-quinoline-3-carboxamide], the Emax is 25 to 100%. Turning to `CC(C)(C)OC(=O)Nc1ccc(NC(=O)c2c[nH]c3ccccc3c2=O)c(C(F)(F)F)c1` [Compound 600, tert-butyl [[4-[(4-oxo-1H-quinolin-3-yl)carbonylamino]-3-(trifluoromethyl)phenyl]amino]formate], the Emax fell in the range of 25 to 100%.

For `COc1ccc2[nH]cc(C(=O)Nc3ccc(N4CCC[C@@H]4C)cc3C(F)(F)F)c(=O)c2c1` [Compound 601, (S)-6-methoxy-N-(4-(2-methylpyrrolidin-1-yl)-2-(trifluoromethyl)phenyl)-4-oxo-1,4-dihydroquinoline-3-carboxamide], the Emax was in the range of 25 to 100%. For `CC(C)(C)c1cccc(NC(=O)c2c[nH]c3ccccc3c2=O)c1` [Compound 602, 4-oxo-N-(3-tert-butylphenyl)-1H-quinoline-3-carboxamide], the Emax fell in the range of 25 to 100%. With `CC(=O)c1ccc2c(=O)c(C(=O)Nc3cc(O)c(C(C)(C)C)cc3C(C)(C)C)c[nH]c2c1` [Compound 604, 7-acetyl-N-(5-hydroxy-2,4-ditert-butyl-phenyl)-4-oxo-1H-quinoline-3-carboxamide], the Emax was in the range of 25 to 100%. `CCc1cccc2c(=O)c(C(=O)Nc3cc(O)c(C(C)(C)C)cc3F)c[nH]c12` [Compound 605, 8-ethyl-N-(2-fluoro-5-hydroxy-4-tert-butyl-phenyl)-4-oxo-1H-quinoline-3-carboxamide]: the Emax is below 25%. `CC1(c2ccc(NC(=O)c3c[nH]c4cccc(O)c4c3=O)cc2O)CCCCC1` [Compound 606, 5-hydroxy-N-[3-hydroxy-4-(1-methylcyclohexyl)-phenyl]-4-oxo-1H-quinoline-3-carboxamide]: the Emax is below 25%.

As for `Cc1ccc2c(=O)c(C(=O)Nc3ccc(N4CCC[C@@H]4C)cc3C(F)(F)F)c[nH]c2c1` [Compound 607, (S)-7-methyl-N-(4-(2-methylpyrrolidin-1-yl)-2-(trifluoromethyl)phenyl)-4-oxo-1,4-dihydroquinoline-3-carboxamide], the Emax was 25 to 100%. For the molecule `O=C(Nc1cc(O)c(Cl)cc1Cl)c1c[nH]c2ccccc2c1=O` [Compound 608, N-(2,4-dichloro-5-hydroxy-phenyl)-4-oxo-1H-quinoline-3-carboxamide], the Emax fell in the range of 25 to 100%. On the same count and under the same terms, to `CC(C)(C)c1ccc(O)cc1NC(=O)c1c[nH]c2cccc(O)c2c1=O` [Compound 609, 5-hydroxy-N-(5-hydroxy-2-tert-butyl-phenyl)-4-oxo-1H-quinoline-3-carboxamide] belongs 25 to 100%; to `CC(C)(C)c1cc(F)c(NC(=O)c2c[nH]c3cccc(F)c3c2=O)cc1O` [Compound 610, 5-fluoro-N-(2-fluoro-5-hydroxy-4-tert-butyl-phenyl)-4-oxo-1H-quinoline-3-carboxamide], 25 to 100%; to `COc1cc2c(=O)c(C(=O)Nc3cc4[nH]ccc4cc3C(C)(C)C)c[nH]c2cc1F` [Compound 611, 7-fluoro-6-methoxy-4-oxo-N-(5-tert-butyl-1H-indol-6-yl)-1H-quinoline-3-carboxamide], above 100%. Regarding `CC1(C)CCCN(c2ccc(NC(=O)c3c[nH]c4ccccc4c3=O)c(C(F)(F)F)c2)C1` [Compound 612, N-[4-(3,3-dimethyl-1-piperidyl)-2-(trifluoromethyl)phenyl]-4-oxo-1H-quinoline-3-carboxamide], the Emax is 25 to 100%. Same read-out and setting: in the case of `Cc1cccc2[nH]cc(C(=O)Nc3ccc(N4CC[C@@H](C)C4)cc3C(F)(F)F)c(=O)c12` [Compound 613, (R)-5-methyl-N-(4-(3-methylpyrrolidin-1-yl)-2-(trifluoromethyl)phenyl)-4-oxo-1,4-dihydroquinoline-3-carboxamide] it was 25 to 100%; in that of `O=C(Nc1ccc(Oc2cccnc2)cc1)c1c[nH]c2ccccc2c1=O` [Compound 614, 4-oxo-N-[4-(3-pyridyloxy)phenyl]-1H-quinoline-3-carboxamide], 25 to 100%. On to `Cc1cc(N2CCCC2)ccc1NC(=O)c1c[nH]c2ccccc2c1=O` [Compound 615, N-(2-methyl-4-pyrrolidin-1-yl-phenyl)-4-oxo-1H-quinoline-3-carboxamide], for which the Emax is above 100%. `CCOc1cccc2c(=O)c(C(=O)Nc3cc(O)c(C(C)(C)C)cc3C(C)(C)C)c[nH]c12` [Compound 616, 8-ethoxy-N-(5-hydroxy-2,4-ditert-butyl-phenyl)-4-oxo-1H-quinoline-3-carboxamide]: the Emax is below 25%. As to `COc1cc2[nH]cc(C(=O)Nc3cc(O)c(C(C)(C)C)cc3C(C)(C)C)c(=O)c2cc1F` [Compound 617, 6-fluoro-N-(5-hydroxy-2,4-ditert-butyl-phenyl)-7-methoxy-4-oxo-1H-quinoline-3-carboxamide], the Emax was above 100%.

Turning to `C[C@H]1CCCN1c1ccc(NC(=O)c2c[nH]c3ccccc3c2=O)c(C(F)(F)F)c1` [Compound 618, (S)-N-(4-(2-methylpyrrolidin-1-yl)-2-(trifluoromethyl)phenyl)-4-oxo-1,4-dihydroquinoline-3-carboxamide], the Emax lay in the range of 25 to 100%.

Turning to `O=C(Nc1cc(O)c(C2CCCCC2)cc1C(F)(F)F)c1c[nH]c2ccccc2c1=O` [Compound 619, N-[4-cyclohexyl-5-hydroxy-2-(trifluoromethyl)phenyl]-4-oxo-1H-quinoline-3-carboxamide], the Emax is above 100%. For the molecule `Cc1cccc2c(=O)c(C(=O)Nc3cc(O)c(C(C)(C)C)cc3C(C)(C)C)c[nH]c12` [Compound 621, N-(5-hydroxy-2,4-ditert-butyl-phenyl)-8-methyl-4-oxo-1H-quinoline-3-carboxamide], the Emax is below 25%. Take `N#Cc1cc(N2CCCC2)ccc1NC(=O)c1c[nH]c2ccccc2c1=O` [Compound 622, N-(2-cyano-4-pyrrolidin-1-yl-phenyl)-4-oxo-1H-quinoline-3-carboxamide]: the Emax was 25 to 100%.
